Measurements as given in the supplement of paper PMC10307832.

What was measured:
Test in all cases: relative viability (nuclei count vs DMSO), 5 days (fraction); higher = more cells survive
[1] = system: BEN
Summary of the method: (§1)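 Dosing by pin tool came one day after lung cancer cell lines were seeded in 1536-well plates, using either one drug or a fixed anchor-drug dose plus five library-drug doses (not always all listed) in √10 steps. After 5 days, nuclei were counted on 4× images. Relative viability is treated-well nuclei count divided by vehicle-well nuclei count, and values are medians of duplicate plates.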

[2] = system: ChaGo-K-1
Summary of the method: as §1

[3] = system: HCC-78
Summary of the method: as §1

[4] = system: LC-2-ad
Summary of the method: as §1

[5] = system: LCLC-97TM1
Summary of the method: as §1

[6] = system: LK-2
Summary of the method: as §1

[7] = system: LU99A
Summary of the method: as §1

[8] = system: LXF-289
Summary of the method: as §1

[9] = system: NCI-H1355
Summary of the method: as §1

[10] = system: NCI-H1651
Summary of the method: as §1

[11] = system: NCI-H1666
Summary of the method: as §1

[12] = system: NCI-H1944
Summary of the method: as §1

[13] = system: NCI-H1975
Summary of the method: as §1

[14] = system: NCI-H2087
Summary of the method: as §1

[15] = system: NCI-H2342
Summary of the method: as §1

[16] = system: NCI-H358
Summary of the method: as §1

[17] = system: NCI-H596
Summary of the method: as §1

[18] = system: NCI-H650
Summary of the method: as §1

[19] = system: NCI-H661
Summary of the method: as §1

[20] = system: NCI-H838
Summary of the method: as §1

[21] = system: PC-3 [JPC-3]
Summary of the method: as §1

[22] = system: SK-MES-1
Summary of the method: as §1

`COc1nc(C)cnc1NS(=O)(=O)c1cccnc1-c1ccc(-c2nnco2)cc1` [Zibotentan] + CC(=O)Nc1cccc(-n2c(=O)n(C3CC3)c(=O)c3c(Nc4ccc(I)cc4F)n(C)c(=O)c(C)c32)c1 [Trametinib] (partner 0.02 µM) was tested, and the relative viability ([1]; first compound 0.08 µM) was 1.04, the relative viability ([1]; first compound 0.253 µM) was 0.926 and the relative viability ([1]; first compound 0.8 µM) was 0.832. The relative viability ([1]; first compound 2.53 µM) was 0.979, the relative viability ([2]; first compound 0.08 µM) was 0.886 and the relative viability ([2]; first compound 0.253 µM) was 0.899. The relative viability ([2]; first compound 0.8 µM) was 0.888, the relative viability ([2]; first compound 2.53 µM) was 0.886 and the relative viability ([3]; first compound 0.08 µM) was 0.825. The relative viability ([3]; first compound 0.253 µM) was 0.569, the relative viability ([3]; first compound 0.8 µM) was 0.665 and the relative viability ([3]; first compound 2.53 µM) was 0.652. For the same compound, the relative viability ([4]; first compound 0.08 µM) was 0.928, the relative viability ([4]; first compound 0.253 µM) was 0.858 and the relative viability ([4]; first compound 0.8 µM) was 0.913. The relative viability ([4]; first compound 2.53 µM) was 0.935, the relative viability ([5]; first compound 0.08 µM) was 0.217 and the relative viability ([5]; first compound 0.253 µM) was 0.213. For the same compound, the relative viability ([5]; first compound 0.8 µM) was 0.198, the relative viability ([5]; first compound 2.53 µM) was 0.2 and the relative viability ([6]; first compound 0.08 µM) was 0.881. For the same compound, the relative viability ([6]; first compound 0.253 µM) was 0.793, the relative viability ([6]; first compound 0.8 µM) was 0.83 and the relative viability ([6]; first compound 2.53 µM) was 0.703. It also gave a relative viability ([7]; first compound 0.08 µM) of 0.598, a relative viability ([7]; first compound 0.253 µM) of 0.547 and a relative viability ([7]; first compound 0.8 µM) of 0.537. The relative viability ([7]; first compound 2.53 µM) was 0.585, the relative viability ([8]; first compound 0.08 µM) was 0.61 and the relative viability ([8]; first compound 0.253 µM) was 0.622. For the same compound, the relative viability ([8]; first compound 0.8 µM) was 0.675, the relative viability ([8]; first compound 2.53 µM) was 0.675 and the relative viability ([9]; first compound 0.08 µM) was 0.399. It also gave a relative viability ([9]; first compound 0.253 µM) of 0.437, a relative viability ([9]; first compound 0.8 µM) of 0.402 and a relative viability ([9]; first compound 2.53 µM) of 0.438. It also gave a relative viability ([10]; first compound 0.08 µM) of 0.907, a relative viability ([10]; first compound 0.253 µM) of 0.794 and a relative viability ([10]; first compound 0.8 µM) of 0.832. The relative viability ([10]; first compound 2.53 µM) was 0.803, the relative viability ([11]; first compound 0.08 µM) was 0.882 and the relative viability ([11]; first compound 0.253 µM) was 0.779. The relative viability ([11]; first compound 0.8 µM) was 0.821, the relative viability ([11]; first compound 2.53 µM) was 0.863 and the relative viability ([12]; first compound 0.08 µM) was 0.461. It also gave a relative viability ([12]; first compound 0.253 µM) of 0.383, a relative viability ([12]; first compound 0.8 µM) of 0.399 and a relative viability ([12]; first compound 2.53 µM) of 0.437. The relative viability ([13]; first compound 0.08 µM) was 0.336, the relative viability ([13]; first compound 0.253 µM) was 0.355 and the relative viability ([13]; first compound 0.8 µM) was 0.358. For the same compound, the relative viability ([13]; first compound 2.53 µM) was 0.34, the relative viability ([14]; first compound 0.08 µM) was 0.192 and the relative viability ([14]; first compound 0.253 µM) was 0.146. It also gave a relative viability ([14]; first compound 0.8 µM) of 0.246, a relative viability ([14]; first compound 2.53 µM) of 0.208 and a relative viability ([15]; first compound 0.08 µM) of 0.848. The relative viability ([15]; first compound 0.253 µM) was 0.78, the relative viability ([15]; first compound 0.8 µM) was 0.844 and the relative viability ([15]; first compound 2.53 µM) was 1.16. It also gave a relative viability ([16]; first compound 0.08 µM) of 0.15, a relative viability ([16]; first compound 0.253 µM) of 0.109 and a relative viability ([16]; first compound 2.53 µM) of 0.145. The relative viability ([17]; first compound 0.08 µM) was 0.801, the relative viability ([17]; first compound 0.253 µM) was 0.8 and the relative viability ([17]; first compound 0.8 µM) was 0.791. It also gave a relative viability ([17]; first compound 2.53 µM) of 0.714, a relative viability ([18]; first compound 0.08 µM) of 1.06 and a relative viability ([18]; first compound 0.253 µM) of 1.04. The relative viability ([18]; first compound 0.8 µM) was 0.967, the relative viability ([18]; first compound 2.53 µM) was 0.844 and the relative viability ([19]; first compound 0.08 µM) was 0.574. For the same compound, the relative viability ([19]; first compound 0.253 µM) was 0.495, the relative viability ([19]; first compound 0.8 µM) was 0.589 and the relative viability ([19]; first compound 2.53 µM) was 0.601. The relative viability ([20]; first compound 0.08 µM) was 0.525, the relative viability ([20]; first compound 0.253 µM) was 0.454 and the relative viability ([20]; first compound 0.8 µM) was 0.487. It also gave a relative viability ([20]; first compound 2.53 µM) of 0.508, a relative viability ([21]; first compound 0.08 µM) of 0.628 and a relative viability ([21]; first compound 0.253 µM) of 0.508. It also gave a relative viability ([21]; first compound 0.8 µM) of 0.723, a relative viability ([21]; first compound 2.53 µM) of 0.715 and a relative viability ([22]; first compound 0.08 µM) of 0.581. It also gave a relative viability ([22]; first compound 0.253 µM) of 0.533, a relative viability ([22]; first compound 0.8 µM) of 0.563 and a relative viability ([22]; first compound 2.53 µM) of 0.556.
